By IC50 is commonly meant the concentration at which inhibition is half-maximal.

SMILES strings stand for the structures. Entries after “also recorded” stand apart in the source; their conditions may differ. Read-outs that look alike come from different tables or passages of the source.

Data on ten compounds can be found in article PMC9040055, “Triterpenes from Pholiota populnea as Cytotoxic Agents and Chemosensitizers to Overcome Multidrug Resistance of Cancer Cells” (Journal of Natural Products, 2022).

The subject of data set [1] is Colo 320/MDR-LRP resistant colon adenocarcinoma cells. As to the kind of experiment: MTT assay for cytotoxic effect, Colo 320. The conditions noted are these: 24 h incubation, triplicate, read-out: Colo320 (IC50 μM) mean. Format: cell-based, human. How it is done:
(§1) The human colon adenocarcinoma cell lines, the Colo 205 (ATCC-CCL-222) doxorubicin-sensitive parent and Colo 320/MDR-LRP (ATCC-CCL-220.1) resistant to anticancer agents expressing ABCB1, were purchased from LGC Promochem (Teddington, UK). […] The cell lines were incubated in a humidified atmosphere (5% CO2, 95% air) at 37 °C. The effects of increasing concentrations of the compounds on cell growth were tested in 96-well flat-bottomed microtiter plates. The 2-fold serial dilutions of the tested compounds were made starting with 100 μM. Then, 10^4 human colonic adenocarcinoma cells in 100 μL of the medium (RPMI-1640) were added to each well, except for the medium control wells. The adherent human embryonic lung fibroblast cell line (10^4/well) was seeded in EMEM medium in 96-well flat-bottomed microtiter plates for 4 h before the assay. The serial dilutions of the compounds were made in a separate plate starting with 100 μM and then transferred to the plates containing the adherent corresponding cell line. Culture plates were incubated at 37 °C for 24 h; at the end of the incubation period, 20 μL of MTT (thiazolyl blue tetrazolium bromide) solution (from a 5 mg/mL stock solution) was added to each well. After incubation at 37 °C for 4 h, 100 μL of sodium dodecyl sulfate (SDS) solution (10% SDS in 0.01 M HCl) was added to each well, and the plates were further incubated at 37 °C overnight. Cell growth was determined by measuring the optical density (OD) at 540 nm (ref 630 nm) with a Multiscan EX ELISA reader (Thermo Labsystems, Cheshire, WA, USA). […] IC50 values and the SD of triplicate experiments were calculated by using GraphPad Prism software version 5.00 for Windows with nonlinear regression curve fit (GraphPad Software, San Diego, CA, USA; www.graphpad.com).
(In general: Tetrazolium assays rely on reduction of a dye to a coloured formazan, in cell work by metabolically active cells.)

The nature of data set [2]: MTT assay for cytotoxic effect, MRC-5. Format: cell-based, human. The conditions noted are these: human. The method, then: as §1
Data set [3] concerns the target P-glycoprotein (ABCB1) in MDR Colo 320 cells (Homo sapiens, UniProt P08183). As to the kind of experiment: Rhodamine 123 accumulation assay (P-gp efflux pump inhibition). Format: cell-based. How it is done:
The inhibitory activities of compounds 1–3, 5, and 6 on efflux function were evaluated by measuring the intracellular accumulation of rhodamine 123, a well-known P-glycoprotein substrate fluorescent dye, within the Colo320 MDR cells. Tariquidar, a strong P-gp inhibitor, was used as positive control. All tested compounds were dissolved in DMSO, and the final concentration (2.00%) of the solvent was investigated for any effect on the retention of rhodamine 123. […] The cell numbers of the human colon adenocarcinoma cell lines were adjusted to 2 × 10^6 cells/mL, resuspended in serum-free RPMI 1640 medium, and distributed in 0.5 mL aliquots into Eppendorf centrifuge tubes. […] DMSO at 2% v/v was used as solvent control. Next, 10 μL (5.2 μM final concentration) of the fluorochrome and ABCB1 substrate rhodamine 123 (Sigma) were added to the samples, and the cells were incubated for a further 20 min at 37 °C, washed twice, and resuspended in 1 mL of PBS for analysis. The fluorescence of the cell population was measured with a PartecCyFlow flow cytometer (Partec, Münster, Germany). The FAR was calculated as the quotient between FL-1 of the treated/untreated resistant Colo 320 cell line over the treated/untreated sensitive Colo 205 cell line according to the following equation: [drawing 2]

Data set [4] deals with Colo 205 doxorubicin-sensitive colon adenocarcinoma cells. As to the kind of experiment: MTT assay for cytotoxic effect, Colo 205. Format: cell-based, human. The settings on record: 24 h incubation, triplicate, read-out: Colo205 (IC50 μM) mean. The method, then:
as §1

Data set [5] relates to Colo 320 colon adenocarcinoma cell line. The data set is described as follows: Checkerboard combination assay with doxorubicin. In kind it is cell-based, human. The conditions noted are these: for interaction (type of interaction with doxorubicin): Colo 320, based on combination indices; for CI at ED50 (combination index value at the 50% growth inhibition dose): with doxorubicin, Colo 320, 72 h, at best ratio. How it is done: A checkerboard microplate combination assay was performed, which is a widely used in vitro method for the assessment of drug interactions. […] The assay was carried out on the Colo 320 colon adenocarcinoma cell line. The final concentration of the compounds and doxorubicin used in the combination experiment was chosen in accordance with their cytotoxicity toward this cell line. The dilutions of doxorubicin were made in a horizontal direction in 100 μL, and the dilutions of the compounds vertically in the microtiter plate in a 50 μL volume. Then, 6 × 10^3 of Colo 320 cells in 50 μL of the medium were added to each well, except for the medium control wells. The plates were incubated for 72 h at 37 °C in a 5% CO2 atmosphere. The cell growth rate was determined after MTT staining. At the end of the incubation period, 20 μL of MTT solution (from a stock solution of 5 mg/mL) was added to each well. After incubation at 37 °C for 4 h, 100 μL of SDS solution (10% in 0.01 M HCI) was added to each well, and the plates were further incubated at 37 °C overnight. OD was measured at 540 nm (ref 630 nm) with a Multiscan EX ELISA reader.

Data set [6] relates to MRC-5 embryonic lung fibroblast cell line. As to the kind of experiment: MTT assay for cytotoxic effect, MRC-5. In kind it is cell-based, human. The settings on record: MTT, 24 h incubation, triplicate. The method, then:
as §1

For data set [7], the system named is sensitive (Colo 205) human colon adenocarcinoma cells. On the set-up: method as in PMID 33809760. The settings on record: sensitive Colo 205 cells; cited from earlier work.
In data set [8] the test system is resistant (Colo 320) human colon adenocarcinoma cells. On the set-up: method as in PMID 33809760. The conditions noted are these: resistant Colo 320 cells; cited from earlier work.
The test system of data set [9] is panel of 71 human cancer cells from 15 tumor types. On the set-up: method as in PMID 29931585. The conditions noted are these: against 27 cell lines of a panel of 71 human cancer cells; read-out: cytotoxicity IC50; cited from earlier work.
The mark [10] stands for this setting: MRC-5 embryonic lung fibroblast cells, MTT, 24 h incubation, triplicate, read-out: MRC-5 (IC50 μM) mean.

Chain of P-glycoprotein (ABCB1) in MDR Colo 320 cells (P08183 whole entry): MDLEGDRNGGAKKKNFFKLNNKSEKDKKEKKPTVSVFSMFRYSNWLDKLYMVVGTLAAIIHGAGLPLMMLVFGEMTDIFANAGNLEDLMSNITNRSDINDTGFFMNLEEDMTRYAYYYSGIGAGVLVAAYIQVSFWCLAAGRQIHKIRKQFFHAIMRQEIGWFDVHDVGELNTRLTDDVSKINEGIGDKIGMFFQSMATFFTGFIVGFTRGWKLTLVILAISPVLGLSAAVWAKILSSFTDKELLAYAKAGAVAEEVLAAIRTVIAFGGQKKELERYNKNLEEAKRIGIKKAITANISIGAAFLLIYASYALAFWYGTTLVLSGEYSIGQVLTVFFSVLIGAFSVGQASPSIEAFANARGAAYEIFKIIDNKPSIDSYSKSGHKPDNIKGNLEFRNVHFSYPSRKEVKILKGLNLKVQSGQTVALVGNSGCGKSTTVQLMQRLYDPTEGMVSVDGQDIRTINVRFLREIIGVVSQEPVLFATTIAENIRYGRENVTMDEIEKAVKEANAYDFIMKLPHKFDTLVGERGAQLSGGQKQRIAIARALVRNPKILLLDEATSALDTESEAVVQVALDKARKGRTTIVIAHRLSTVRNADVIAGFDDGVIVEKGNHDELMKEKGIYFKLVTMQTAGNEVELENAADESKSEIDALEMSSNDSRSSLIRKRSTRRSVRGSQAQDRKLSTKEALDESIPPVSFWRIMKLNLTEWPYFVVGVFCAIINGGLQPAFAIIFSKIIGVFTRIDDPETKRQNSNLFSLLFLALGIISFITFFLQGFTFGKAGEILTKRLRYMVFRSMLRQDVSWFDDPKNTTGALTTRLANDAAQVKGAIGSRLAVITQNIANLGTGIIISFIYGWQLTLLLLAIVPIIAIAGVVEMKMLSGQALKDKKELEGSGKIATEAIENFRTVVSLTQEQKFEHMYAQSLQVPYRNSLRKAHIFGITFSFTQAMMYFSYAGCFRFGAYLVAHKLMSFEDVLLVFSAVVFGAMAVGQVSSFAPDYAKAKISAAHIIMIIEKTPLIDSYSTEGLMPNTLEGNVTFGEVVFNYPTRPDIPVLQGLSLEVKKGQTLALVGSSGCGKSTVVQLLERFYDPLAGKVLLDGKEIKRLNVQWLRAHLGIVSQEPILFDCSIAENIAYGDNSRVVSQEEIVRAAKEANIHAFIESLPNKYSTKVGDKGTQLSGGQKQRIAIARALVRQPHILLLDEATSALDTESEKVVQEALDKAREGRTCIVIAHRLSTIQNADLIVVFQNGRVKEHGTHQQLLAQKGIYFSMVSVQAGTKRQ

In the case of `CC(=O)O[C@H]1[C@H](OC(=O)C[C@](C)(O)CC(=O)O)C[C@]2(C)C3=C(C(=O)C[C@H]2C1(C)C)[C@]1(C)CC[C@H]([C@H](C)CCC(=O)C(C)(C)O)[C@@]1(C)CC3` [compound 1, pholiol A], the IC50 in data set [1] (Homo sapiens, COLO 320, 24 h) was greater than 100 µM. In addition, the concentration for half-maximal inhibition (IC50) at 24 h in data set [2] (MRC-5 (IC50 μM) mean) was greater than 100 µM. Also, in data set [3] (human, 20 min, 20 μM), the “FAR (fluorescence activity ratio)” value is recorded as 3.418, the FL-1 was determined as 39.600 and the “Peak Ch” value came to 42.200. Also, the IC50 in data set [4] (Homo sapiens, COLO 205, 24 h) is greater than 100 µM.

As to `COC(=O)C[C@@](C)(O)CC(=O)O[C@@H]1C[C@]2(C)C3=C(C(=O)C[C@H]2C(C)(C)[C@H]1OC(C)=O)[C@]1(C)CC[C@H]([C@H](C)CCC(=O)C(C)(C)O)[C@@]1(C)CC3` [compound 2, pholiol B], the IC50 in data set [1] (listed as Pholiol B (2)) was 61.5 µM; in [1], greater than 25 µM; in [4] (listed as Pholiol B (2)), 67.9 µM; in [4], greater than 25 µM. Also, in [3] (human, 20 min, 20 μM), the “FAR (fluorescence activity ratio)” value was found to be 6.880. The compound further came in with an FL-1 in [3] (human, 20 min, 20 μM) of 79.700. The “Peak Ch” value in [3] (human, 20 min, 20 μM) amounted to 77.700. Besides, the results for the “interaction (type of interaction with doxorubicin)” value (from here on “interaction”) in [5] and in data set [5] (listed as pholiol B (2)) were “synergistic” and “synergism”, respectively. Besides, the “CI at ED50 (combination index value at the 50% growth inhibition dose)” value in [5] came out at 0.348.

With `CC(=O)O[C@H]1[C@H](OC(=O)C[C@](C)(O)CC(=O)O)C[C@]2(C)C3=C(CC[C@H]2C1(C)C)[C@]1(C)CC[C@H]([C@H](C)CCC(=O)C(C)(C)O)[C@@]1(C)[C@H](O)C3` [compound 3, pholiol C], in [1] (Homo sapiens, COLO 320, 24 h), the IC50 was greater than 100 µM. The IC50 at 24 h in data set [2] (MRC-5 (IC50 μM) mean) is greater than 100 µM. Moreover, in data set [3] (human, 20 min, 20 μM), the “FAR (fluorescence activity ratio)” value is 0.967, the FL-1 turned out to be 11.200 and the “Peak Ch” value was found to be 18.400. In addition, in data set [4] (Homo sapiens, COLO 205, 24 h), the IC50 is greater than 100 µM.

Turning to `COC(=O)C[C@@](C)(O)CC(=O)O[C@@H]1C[C@]2(C)C3=C(CC[C@H]2C(C)(C)[C@H]1OC(C)=O)[C@]1(C)CC[C@H]([C@H](C)CCC(=O)C(C)(C)O)[C@@]1(C)[C@H](O)C3` [compound 4, pholiol D], the IC50 was greater than 25 µM in [1]; 48.9 µM in [1] (Homo sapiens, COLO 320, 24 h); 51.4 µM in [4] (listed as Pholiol D (4)); greater than 25 µM in [4]. Besides, the “interaction” value was “synergistic” in [5] and “Synergism” in data set [5] (listed as pholiol D (4)). Moreover, the “CI at ED50 (combination index value at the 50% growth inhibition dose)” value in [5] is listed as 0.660.

As for `C/C(=C\CC/C=C(\C)CC/C=C(\C)CC[C@H](O)C(C)(C)O)CC/C=C(\C)CC[C@H](O)C(C)(C)O` [compound 5, (3S,6E,10E,14E,18E,22S)-2,3,22,23-tetrahydroxy-2,6,10,15,19,23-hexamethyl-6,10,14,18-tetracosatetraene], the IC50 in data set [1] is greater than 25 µM; in [1] (Homo sapiens, COLO 320, 24 h), 27.5 µM; in data set [6], greater than 25 µM; in data set [4], greater than 25 µM; in data set [4] (Homo sapiens, COLO 205, 24 h), 26.7 µM. In [2] (setting [10]), the IC50 at 24 h amounted to 29.1 µM. Moreover, the “FAR (fluorescence activity ratio)” value in data set [3] (conc. 20 μM, rhodamine 123, Colo 320 vs Colo 205) worked out at 6.638. Also, the “P-gp MDR efflux pump inhibitory activity (in words)” value in data set [3] (resistant Colo320 cells, rhodamine 123 accumulation) is on record as “inhibition of P-gp MDR efflux pump activity; also recorded: capacity to inhibit the efflux-pump; also recorded: moderate P-gp inhibitory activity”. Besides, the “interaction” value is on record as “very strong synergistic; also recorded: synergistic” in [5] and “very strong synergism” in data set [5] (listed as compound 5). For the same compound, the “CI at ED50 (combination index value at the 50% growth inhibition dose)” value in data set [5] is 0.082.

The compound `CC(C)[C@@H](C)/C=C/[C@@H](C)[C@H]1CC[C@H]2C3=CC=C4C[C@@H](O)CC[C@]4(C)[C@H]3CC[C@]12C` [compound 6, ergosterol] registered a concentration for half-maximal inhibition (IC50) at 24 h in data set [2] (MRC-5 (IC50 μM) mean) of 0.5 µM. Moreover, the “interaction” value in data set [5] (listed as ergosterol (6)) is “additive effect; also recorded: nearly additive”.

`COc1cccc2c1C(=O)c1c(O)c3c(c(O)c1C2=O)C[C@@](O)(C(=O)CO)C[C@@H]3O[C@H]1C[C@H](N)[C@H](O)[C@H](C)O1` [doxorubicin, reference compound]: the IC50 in [1] worked out at 7.4 µM; in data set [4] it was 2.5 µM. The IC50 at 24 h in data set [2] (setting [10]) was greater than 20 µM.

Turning to `CC(C)[C@@H](C)C=C[C@@H](C)[C@H]1CC[C@H]2C3=CCC4CC(=O)CC[C@]4(C)[C@H]3CC[C@]12C` (stereo partly shown) [ergosta-7,22-diene-3-one], the concentration for half-maximal inhibition (IC50) is 11.6 ± 1.7 µM in [7] and 8.4 ± 1.1 µM in data set [8].

As for `CC(C)=CCC[C@@H](C)[C@@H]1CC[C@]2(C)C3=C(CC[C@@]12C)[C@@]1(C)CC[C@H](O)C(C)(C)[C@@H]1CC3` [euphol], the 50% inhibitory concentration (IC50) in [9] is less than 10 µM.

`COc1cc2c(cc1OC)CN(CCc1ccc(NC(=O)c3cc(OC)c(OC)cc3NC(=O)c3cnc4ccccc4c3)cc1)CC2` [tariquidar, reference compound]: the “FAR (fluorescence activity ratio)” value in [3] (conc. 0.2 μM, positive control, rhodamine 123) was found to be 5.533.
